Assay results from patent publication US8883410B2, “Method for determining the stability of organic methyleneamines in the presence of semicarbazide-sensitive amine oxidase” (Sanofi, priority 2007, dated 2014).

Tests used:
Assay type in all cases: in vitro ADME
[1] = target: T1, human SSAO T2 (Met211-Asn763), untagged (Homo sapiens, UniProt Q16853); assay: Benzylamine stability in lysate of cells expressing T2 SSAO (untagged), LC/MS/MS; conditions: tag None
T1 construct: T2 (Met211-Asn763) Representing the Putative Catalytic Domain; expressed in transfected cells; cell lysate
T1 sequence (Q16853 211-763): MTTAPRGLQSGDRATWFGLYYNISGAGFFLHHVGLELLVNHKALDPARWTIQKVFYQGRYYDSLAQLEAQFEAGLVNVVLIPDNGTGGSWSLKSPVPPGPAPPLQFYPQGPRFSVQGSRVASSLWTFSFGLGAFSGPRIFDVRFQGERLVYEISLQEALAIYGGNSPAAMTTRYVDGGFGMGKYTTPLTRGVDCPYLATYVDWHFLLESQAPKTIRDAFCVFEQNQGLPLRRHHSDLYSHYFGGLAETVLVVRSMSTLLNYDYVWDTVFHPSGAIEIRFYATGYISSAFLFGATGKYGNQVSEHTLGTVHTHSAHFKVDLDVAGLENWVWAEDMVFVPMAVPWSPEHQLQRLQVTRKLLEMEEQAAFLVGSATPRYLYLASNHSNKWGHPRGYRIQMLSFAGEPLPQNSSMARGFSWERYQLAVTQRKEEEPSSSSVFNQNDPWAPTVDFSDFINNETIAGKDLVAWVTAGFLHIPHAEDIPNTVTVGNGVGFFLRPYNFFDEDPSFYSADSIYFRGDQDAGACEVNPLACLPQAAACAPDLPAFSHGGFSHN
Protocol: (§1) 4) T2 (Met211-Asn763) Representing the Putative Catalytic Domain.
(§2) The expression constructs were prepared by cloning these PCR products into the pCDNA5-FRT-To-DEST vector (Invitrogen, Gateway System™). The forward and reverse DNA sequence of each construct was confirmed including expressed sequences and at least 100 base pairs either side of this. Stable cell lines for Flp-In CHO, Flp-In CHO T-Rex, and Flp-In HEK 293 (Invitrogen, Flp-In system™) were generated using these 6 constructs according to manufacturer's instructions. Cells were co-transfected with the regulatory vector, pOG44, and each of the pCDNA5-FRT-To-DEST constructs using Lipfectamine (Invitrogen) according to manufacturer's instructions. Thus, 18 cell lines were generated: CHO Flp-In full-length SSAO; CHO Flp-In full-length SSAO with C-terminal 6×HIS tag; CHO Flp-In T1 SSAO; CHO Flp-In T1 SSAO with C-terminal 6×HIS tag; CHO Flp-In T2 SSAO; CHO Flp-In T2 SSAO with C-terminal 6×HIS tag; CHO T-Rex Flp-In full-length SSAO; CHO T-Rex Flp-In full-length SSAO with C-terminal 6×HIS tag; CHO T-Rex Flp-In T1 SSAO; CHO T-Rex Flp-In T1 SSAO with C-terminal 6×HIS tag; CHO T-Rex Flp-In T2 SSAO; CHO Flp-In T2 SSAO with C-terminal 6×HIS tag; HEK 293 Flp-In full-length SSAO; HEK 293 Flp-In full-length SSAO with C-terminal 6×HIS tag; HEK 293 Flp-In T1 SSAO; HEK 293 Flp-In T1 SSAO with C-terminal 6×HIS tag; HEK 293 Flp-In T2 SSAO; HEK 293 Flp-In T2 SSAO with C-terminal 6×HIS tag.
(§3) Adherent CHO cells were cultured at 37° C., 5% CO2 in media containing Ham's F12, 10% fetal bovine serum, 2 mM L-glutamine, 1% Penicillin/Streptomycin, 300 μM hygromycin B. Adherent HEK 293 cells were cultured at 37° C., 5% CO2 in D-MEM (high glucose), 10% fetal bovine serum, 2 mM L-glutamine, and 200 μM hygromycin B. Stable transformants were identified by loss of zeocin resistance. Once the cells were 80% confluent, SSAO expression was induced by the addition of Tetracycline to 1 μg/mL. Following 18 hours, the cells were harvested using a trypsin treatment of 3 minutes, at room temperature. Cells were washed 3 times in phosphate buffered saline before flash freezing in liquid nitrogen.
(§4) For the preparation of cell lysate for activity testing, frozen cell pellets were resuspended in lysate buffer containing 10 mM Tris-HCl (pH 7.2), 150 mM NaCl, 1.5 mM MgCl2, 1% v/v NP-40 and incubated for 15 minutes on ice. Lysate was cleared by centrifugation 800×g for 10 minutes, 4° C. and stored in aliquots at −80° C. until use. Proteins were determined using Pierce Coomassie Protein Reagent, according to manufacturer's instructions.
(§5) For each assay run, 1 mL of cell lysate (1.5 mg/mL protein) was mixed with benzylamine to 2000 ng/mL final concentration. At each corresponding time point, […] the incubation mixture was transferred to a microcentrifuge tube (1.7 mL) and mixed with 50 μL of acetonitrile. The tubes were vortex mixed briefly to ensure complete mixing and then centrifuged at 10,000×g for 5 minutes. The supernatant was removed and 50 μL was transferred to an autosampler vial and mixed with 50 μL of water before LC/MS/MS analysis. Benzylamine remaining in the lysate was analyzed with LC/MS/MS method.
(§6) LC/MS/MS analysis was performed with a PE Sciex API 3000 mass spectrometer under the following conditions listed below and in Tables 1 and 2: […]

[2] = Benzylamine stability in control cell lysate (no SSAO expressed), LC/MS/MS; conditions: tag None
Protocol: as §3, §4, §5, §6

[3] = target: T2, human SSAO T2 (Met211-Asn763), C-terminal 6xHIS tag (Homo sapiens, UniProt Q16853); assay: Benzylamine stability in lysate of cells expressing T2 SSAO with C-terminal 6xHIS tag, LC/MS/MS
T2 construct: T2 (Met211-Asn763) Representing the Putative Catalytic Domain; expressed in transfected cells; cell lysate
T2 sequence (Q16853 211-763): T1 sequence (Q16853 211-763)
Protocol: as §1, §2, §3, §4, §5, §6

[4] = CHO Flp-In T-Rex lysate, 10 min

## NCc1ccccc1 [Benzylamine]
[1]; CHO Flp-In T-Rex lysate, 0 min
  Benzylamine Remaining (%): 100%
[1]; [4]
  Benzylamine Remaining (%): 97%
[1]; CHO Flp-In T-Rex lysate, 2 h
  Benzylamine Remaining (%): 83%
[1]; CHO Flp-In lysate, 0 min
  Benzylamine Remaining (%): 100%
[1]; CHO Flp-In lysate, 10 min
  Benzylamine Remaining (%): 105%
[1]; CHO Flp-In lysate, 2 h
  Benzylamine Remaining (%): 98%
[1]; HEK293 lysate, 0 min
  Benzylamine Remaining (%): 100%
[1]; HEK293 lysate, 10 min
  Benzylamine Remaining (%): 113%
[1]; HEK293 lysate, 2 h
  Benzylamine Remaining (%): 101%
[2]; CHO Flp-In T-Rex lysate, SSAO None, 0 min
  Benzylamine Remaining (%): 100%
[2]; CHO Flp-In T-Rex lysate, SSAO None, 10 min
  Benzylamine Remaining (%): 104%
[2]; CHO Flp-In T-Rex lysate, SSAO None, 2 h
  Benzylamine Remaining (%): 99%
[2]; Control CHO Flp-In lysate, SSAO none, 0 min
  Benzylamine Remaining (%): 100%
[2]; Control CHO Flp-In lysate, SSAO none, 10 min
  Benzylamine Remaining (%): 104%
[2]; Control CHO Flp-In lysate, SSAO none, 2 h
  Benzylamine Remaining (%): 99%
[2]; Control CHO lysate, SSAO none, 0 min
  Benzylamine Remaining (%): 100%
[2]; Control CHO lysate, SSAO none, 10 min
  Benzylamine Remaining (%): 111%
[2]; Control CHO lysate, SSAO none, 2 h
  Benzylamine Remaining (%): 110%
[2]; HEK293 control lysate, SSAO none, 0 min
  Benzylamine Remaining (%): 100%
[2]; HEK293 control lysate, SSAO none, 10 min
  Benzylamine Remaining (%): 106%
[2]; HEK293 control lysate, SSAO none, 2 h
  Benzylamine Remaining (%): 123%
[3]; CHO Flp-In T-Rex lysate, 0 min
  Benzylamine Remaining (%): 100%
[3]; [4]
  Benzylamine Remaining (%): 100%
[3]; CHO Flp-In T-Rex lysate, 2 h
  Benzylamine Remaining (%): 97%
[3]; CHO Flp-In lysate, 0 min
  Benzylamine Remaining (%): 100%
[3]; CHO Flp-In lysate, 10 min
  Benzylamine Remaining (%): 108%
[3]; CHO Flp-In lysate, 2 h
  Benzylamine Remaining (%): 102%
[3]; HEK293 lysate, 0 min
  Benzylamine Remaining (%): 100%
[3]; HEK293 lysate, 10 min
  Benzylamine Remaining (%): 100%
[3]; HEK293 lysate, 2 h
  Benzylamine Remaining (%): 117%
